Results taken from patent US20040110693A1, “Agent for treating diabetes mellitus” (priority 2001, published 2004).
Several values for one entry are separate records, joined by “and”; a condition that tells them apart may be missing. Equal values may be shown once.

Assays:
normal persons = assay: Side effects in normal persons after 50-75 g of sucrose instead of test breakfast; type: in vivo, human; details: 100 mg
type II diabetics = assay: Short-term experiments with alpha-glucosidase inhibitors and bulk materials: blood sugar increase after test breakfast; details: for action compared with bulk material: levelling of blood sugar increase after eating; for Hypoglycemia, MG 100, mean value: mean of 6 cases
Procedure: After measurement of the fasting blood sugar in the morning, 20 type II diabetics received a test breakfast (75 g of white bread, 20 g of butter, 40 g of jam or, as a sugar-free variant, 75 g of white bread, 20 g of butter and 40 g of cheese). On the control days, before the test breakfast 75 ml of yoghurt were given, and on the test days the various bulk materials were given in 75 ml of yoghurt. […] After the test breakfast, the blood sugar values were measured at ½ to 1 hour intervals for 2-4 hours. Each short-term experiment was carried out two to three times with the individual subjects. The respective average values are indicated.
The basis for the evaluation is the graphic representation of the blood sugar values as curves. The increasing phase of the blood sugar lasting 1-2 hours is determined planimetrically and considered as a measure of the lower limit of glucose absorption. In the first hour after the test breakfast, under physical quasi-resting conditions the increase in the blood sugar curve ought to reflect the intestinal glucose absorption into the blood almost unadulteratedly on the morning of the experiment in the diabetic differently from in the healthy person. Beyond the first hour, even in most type II diabetics an insulin response commences more or less clearly which levels off the blood sugar increase, or conversely in any case leads to a corresponding underestimation of the glucose absorption. […] The planimetric evaluation of all curves is then extended until achieving the peak of the last curve. […] For practical reasons, we compare the increasing phases of the blood sugar curves under the various experimental conditions (control, after bulk material, in the later experiments also after alpha-glucosidase inhibitors) with one another and calculate from this the degree of hypoglycemia based on the control curve. […] The statistical evaluation, which is possible only in the short-term experiments on account of the amounts of data, is carried out using the student's t test in a paired comparison.
21 patients were investigated: 10 each received acarbose and miglitol, 1 patient first acarbose and then miglitol. The individual dose used was 25-100 mg.
Immediately before the test meals described above, the subjects received either a) 75 ml of yoghurt (control experiment) or b) bulk material in yoghurt (bulk curve) or c) a tablet of acarbose or miglitol and then 75 ml of yoghurt (alpha-GI curve) or d) this medicament 5 minutes before taking bulk material in yoghurt (bulk-plus alpha-GI curve). As described, the blood sugar values were determined before and for 3 hours after the test meal.

[1] = 50 mg on its own (acarbose 2 cases, miglitol 8 cases)

| SMILES | symptoms after 50-75 g of sucrose (normal persons) | concomitant symptoms (type II diabetics; [1]) | Hypoglycemia (decrease in the blood sugar increase after a test breakfast), Alpha-GI (type II diabetics; AB 50 mg, individual patient) | Hypoglycemia (decrease in the blood sugar increase after a test breakfast), Alpha-GI (type II diabetics; AB 100 mg, individual patient) | action compared with bulk material (type II diabetics) | concomitant symptoms (type II diabetics; 25 mg on its own (5 cases)) | Hypoglycemia (decrease in the blood sugar increase after a test breakfast), Alpha-GI (type II diabetics; MG 25 mg, individual patient) | Hypoglycemia (decrease in the blood sugar increase after a test breakfast), Alpha-GI (type II diabetics; MG 50 mg, individual patient) | Hypoglycemia (decrease in the blood sugar increase after a test breakfast), Alpha-GI (type II diabetics; MG 100 mg, individual patient) | Hypoglycemia, MG 100 (type II diabetics; miglitol 100 mg on its own, individual patient) | Hypoglycemia, MG 100, mean value (type II diabetics; miglitol 100 mg on its own) | Hypoglycemia, MG 100, mean value (type II diabetics; miglitol 100 mg on its own, listed as miglitol) | patients with semiliquid stools as far as diarrhea (type II diabetics; on its own, short-term experiments) |
| --- | --- | --- | --- | --- | --- | --- | --- | --- | --- | --- | --- | --- | --- |
| CC1OC(OC2C(CO)OC(OC3C(CO)OC(O)C(O)C3O)C(O)C2O)C(O)C(O)C1NC1C=C(CO)[C@@H](O)[C@H](O)[C@H]1O (stereo partly shown) [AB, acarbose] | abdominal pain and diarrhea occurred | no clear concomitant symptoms | 42% and 50% | 41% and 63% (2×) and 56% and 65% and 6% and 55% and 39% and 58% and 59% | considerably stronger action than bulk material |  |  |  |  |  |  |  |  |
| OCCN1C[C@H](O)[C@@H](O)[C@H](O)[C@H]1CO [MG, miglitol] | abdominal pain and diarrhea occurred | no clear concomitant symptoms |  |  | considerably stronger action than bulk material | no clear concomitant symptoms | 27% and 47% and 12% and 53% and 49% and 24% | 33% and 40% and 37% and 62% (2×) and 25% and 59% and 71% | 24% and 60% and 80% and 59% and 32% and 66% and 75% and 34% and 73% | 66% and 75% and 34% and 80% and 59% and 32% | 57.7% | 58% | 4 of 9 patients |
